Assay results from patent US11191870B2, “Gel of sodium hyaluronate cross-linked by polyethylene glycol epoxy derivative for injection and preparation method thereof” (JENKEM TECHNOLOGY CO., LTD. (BEIJING), priority 2016, dated 2021).

Assays:
[1] = system: cells L929; test: Cytotoxicity experiment, extraction method, relative growth rate of cells; conditions: absorbance, higher RCR = lower toxicity, crosslinker compounds
[2] = system: cells L929; test: Median inhibitory concentration (IC50) of crosslinker compounds in cells L929; format: cell-based; conditions: Mus musculus, L929, read-out: IC50 (median inhibitory concentration)
Procedure: A cytotoxicity experiment is achieved through detecting the propagation rate of cells referring to standards for biological evaluation-in vitro cell toxicity test of medical instruments. In the experiment, an extraction method is adopted, a cell toxicity test is performed by adopting cells L929, a relative growth rate (RCR) of the cells is calculated through assaying the absorbance value by using an enzyme-linked immunoassay instrument, and the higher the RCR, the better the biocompatibility and the lower the toxicity.

SMILES	RCR (relative growth rate of the cells), polyglycol diglycidyl ether crosslinkers [1]	IC50 [2]
C(COCCOCC1CO1)OCCOCCOCC1CO1 (stereo not drawn) [Ia, tetraethylene glycol diglycidyl ether]	62%	0.127 mM
C(COCCOCCOCCOCCOCCOCC1CO1)OCCOCCOCCOCCOCCOCCOCC1CO1 (stereo not drawn) [Ib, dodecaethylene glycol diglycidyl ether]	89%	2.3 mM
C(COCCOCCOCCOCCOCCOCCOCCOCCOCCOCCOCCOCC1CO1)OCCOCCOCCOCCOCCOCCOCCOCCOCCOCCOCCOCCOCC1CO1 (stereo not drawn) [Ic, tetracosaethylene glycol diglycidyl ether]	89%	1.88 mM
